Columns and labels:
Assay type in all cases: in vivo
[1] = tested on: Plutella xylostella; assay: Plutella xylostella (diamond back moth) artificial diet test; conditions: 120 h, read-out: effect in at least one of the two categories (mortality or growth inhibition)
Outline: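 At a 200 ppm rate, test solutions were applied to artificial diet and allowed to dry before second-instar larvae were added. Five days later, larval mortality and growth inhibition were rated against untreated samples.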

[2] = tested on: Diabrotica Balteata; assay: Diabrotica balteata (corn root worm) maize sprout test; conditions: 96 h, read-out: effect in at least one of the two categories (mortality or growth inhibition)
Outline: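 Scoring covered both mortality and growth inhibition relative to untreated controls, 4 days post-infestation. Test solutions at 200 ppm, diluted in water from 10′000 ppm DMSO stocks, were sprayed onto agar-held maize sprouts, which after drying received 6 to 10 L2 larvae each well.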

[3] = tested on: Spodoptera littoralis; assay: Spodoptera littoralis (Egyptian cotton leaf worm) cotton leaf disc test; conditions: foliar, 72 h, read-out: control (at least one of mortality, anti-feedant effect, and growth inhibition)
Outline: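 Five first-instar larvae per disc were placed on dried, sprayed cotton leaf discs held on agar. Test solutions were aqueous, made from 10′000 ppm DMSO stocks. At day 3, control was counted when mortality, feeding deterrence or growth inhibition exceeded the untreated discs.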

[4] = tested on: Myzus persicae; assay: Myzus persicae (green peach aphid) sunflower leaf disc test; conditions: foliar, 144 h
Procedure: Myzus persicae (Green Peach Aphid):
Sunflower leaf discs were placed on agar in a 24-well microtiter plate and sprayed with test solutions at an application rate of 200 ppm. After drying, the leaf discs were infested with an aphid population of mixed ages. After an incubation period of 6 days after treatment, samples were checked for mortality. The following compounds gave at least 80% mortality of Myzus persicae: […]

[5] = tested on: Thrips tabaci; assay: Thrips tabaci (onion thrips) sunflower leaf disc test; conditions: foliar, 144 h
Procedure: Thrips tabaci (Onion Thrips):
Sunflower leaf discs were placed on agar in 24-well microtiter plates and sprayed with aqueous test solutions prepared from 10′000 ppm DMSO stock solutions. After drying the leaf discs were infested with a thrips population of mixed ages. The samples were assessed for mortality 6 days after infestation.

[6] = tested on: Tetranychus urticae; assay: Tetranychus urticae (two-spotted spider mite) bean leaf disc test; conditions: foliar, 192 h
Procedure: Tetranychus urticae (Two-Spotted Spider Mite):
Bean leaf discs on agar in 24-well microtiter plates were sprayed with aqueous test solutions prepared from 10′000 ppm DMSO stock solutions. After drying the leaf discs were infested with a mite population of mixed ages. The samples were assessed for mortality on mixed population (mobile stages) 8 days after infestation.

CC1=NOC(NC(=O)c2ccc(C3=NO[C@@](c4cc(Cl)c(F)c(Cl)c4)(C(F)(F)F)C3)cc2Br)C1 (stereo partly drawn) [Compound A036, 2-bromo-4-[(5S)-5-(3,5-dichloro-4-fluoro-phenyl)-5-(trifluoromethyl)-4H-isoxazol-3-yl]-N-(3-methyl-4,5-dihydroisoxazol-5-yl)benzamide]
≥ 80%: percent effect (mortality or growth inhibition) at 200 ppm [1] | percent effect (mortality or growth inhibition) at 200 ppm [2] | percent control (mortality, anti-feedant effect or growth inhibition) at 200 ppm [3] | mortality at 200 ppm [4] | mortality at 200 ppm [5] | mortality at 200 ppm [6]

CC1=NOC(NC(=O)c2ccc(C3=NO[C@@](c4cc(Cl)c(F)c(Cl)c4)(C(F)(F)F)C3)cc2Cl)C1 (stereo partly drawn) [Compound A038, 2-chloro-4-[(5S)-5-(3,5-dichloro-4-fluoro-phenyl)-5-(trifluoromethyl)-4H-isoxazol-3-yl]-N-(3-methyl-4,5-dihydroisoxazol-5-yl)benzamide]
≥ 80%: percent effect (mortality or growth inhibition) at 200 ppm [1] | percent effect (mortality or growth inhibition) at 200 ppm [2] | percent control (mortality, anti-feedant effect or growth inhibition) at 200 ppm [3] | mortality at 200 ppm [4] | mortality at 200 ppm [5] | mortality at 200 ppm [6]

Cc1cc(C2=NO[C@@](c3cc(Cl)c(F)c(Cl)c3)(C(F)(F)F)C2)ccc1C(=O)NC1CC(OC2COC2)=NO1 (stereo partly drawn) [Compound A082]
≥ 80%: percent effect (mortality or growth inhibition) at 200 ppm [1] | percent effect (mortality or growth inhibition) at 200 ppm [2] | percent control (mortality, anti-feedant effect or growth inhibition) at 200 ppm [3] | mortality at 200 ppm [4] | mortality at 200 ppm [5] | mortality at 200 ppm [6]

C=C(F)COC1=NOC(NC(=O)c2ccc(C3=NO[C@@](c4cc(Cl)c(F)c(Cl)c4)(C(F)(F)F)C3)cc2C)C1 (stereo partly drawn) [Compound A081]
≥ 80%: percent effect (mortality or growth inhibition) at 200 ppm [1] | percent effect (mortality or growth inhibition) at 200 ppm [2] | percent control (mortality, anti-feedant effect or growth inhibition) at 200 ppm [3] | mortality at 200 ppm [4] | mortality at 200 ppm [5] | mortality at 200 ppm [6]

Cc1cc(C2=NO[C@@](c3cc(Cl)c(F)c(Cl)c3)(C(F)(F)F)C2)ccc1C(=O)NC1CC(OC/C=C/C(F)(F)F)=NO1 (stereo partly drawn) [Compound A084, 4-[(5S)-5-(3,5-dichloro-4-fluoro-phenyl)-5-(trifluoromethyl)-4H-isoxazol-3-yl]-2-methyl-N-[3-[(E)-4,4,4-trifluorobut-2-enoxy]-4,5-dihydroisoxazol-5-yl]benzamide]
≥ 80%: percent effect (mortality or growth inhibition) at 200 ppm [1] | percent effect (mortality or growth inhibition) at 200 ppm [2] | percent control (mortality, anti-feedant effect or growth inhibition) at 200 ppm [3] | mortality at 200 ppm [4] | mortality at 200 ppm [5] | mortality at 200 ppm [6]

C=C(C)COC1=NOC(NC(=O)c2ccc(C3=NO[C@@](c4cc(Cl)c(F)c(Cl)c4)(C(F)(F)F)C3)cc2C)C1 (stereo partly drawn) [Compound A080]
≥ 80%: percent effect (mortality or growth inhibition) at 200 ppm [1] | percent effect (mortality or growth inhibition) at 200 ppm [2] | percent control (mortality, anti-feedant effect or growth inhibition) at 200 ppm [3] | mortality at 200 ppm [4] | mortality at 200 ppm [5] | mortality at 200 ppm [6]

Cc1cc(C2=NO[C@@](c3cc(Cl)c(F)c(Cl)c3)(C(F)(F)F)C2)ccc1C(=O)NC1CC=NO1 (stereo partly drawn) [Compound A091]
≥ 80%: percent effect (mortality or growth inhibition) at 200 ppm [1] | percent effect (mortality or growth inhibition) at 200 ppm [2] | percent control (mortality, anti-feedant effect or growth inhibition) at 200 ppm [3] | mortality at 200 ppm [4] | mortality at 200 ppm [5] | mortality at 200 ppm [6]

Source: patent US10499642B2, “Isoxazoline-substituted benzamides and analogues as insecticides” (SYNGENTA PARTICIPATIONS AG, priority 2015, dated 2019)
